Patent US20110178062A1, “INDOLE AND BENZOTHIOPHENE COMPOUNDS AS MODULATORS OF THE HISTAMINE H3 RECEPTOR” (priority 2007, published 2011)

What follows are molecules tested against T1, cloned human H3 receptors, stably expressed in SK-N-MC cells (Homo sapiens, UniProt Q9Y5N1) (assay: H3 Receptor Binding (Human)). Conditions: average of the results obtained.
T1 construct: expressed in transfected cells; host or cells: SK-N-MC cells
Experimental: Binding of compounds to the cloned human H3 receptors, stably expressed in SK-N-MC cells, was performed as described by Barbier, A. J. et al. (Br. J. Pharmacol. 2004, 143(5), 649-661). Data for compounds tested in this assay are presented in Table 1 as an average of the results obtained.

T1 sequence (Q9Y5N1 whole entry): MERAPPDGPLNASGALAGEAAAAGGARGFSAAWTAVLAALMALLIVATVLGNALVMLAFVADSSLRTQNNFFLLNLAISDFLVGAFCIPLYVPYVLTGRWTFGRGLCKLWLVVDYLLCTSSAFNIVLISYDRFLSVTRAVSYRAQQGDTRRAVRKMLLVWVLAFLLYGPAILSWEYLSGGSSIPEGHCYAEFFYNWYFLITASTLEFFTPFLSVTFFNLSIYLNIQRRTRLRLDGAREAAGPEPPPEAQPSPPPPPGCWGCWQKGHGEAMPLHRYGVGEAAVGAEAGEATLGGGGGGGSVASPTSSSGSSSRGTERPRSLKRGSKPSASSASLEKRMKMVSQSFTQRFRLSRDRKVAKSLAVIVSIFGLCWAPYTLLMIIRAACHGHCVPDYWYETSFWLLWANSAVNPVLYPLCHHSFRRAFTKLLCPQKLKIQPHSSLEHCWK

SMILES	Ki [µM]
O=C(c1ccc2c(CN3CCOCC3)c[nH]c2c1)N1CCCN(C2CCC2)CC1 [Example 9, (4-Cyclobutyl-[1,4]diazepan-1-yl)-(3-morpholin-4-ylmethyl-1H-indol-6-yl)-methanone]	0.001
CC(C)N1CCN(C(=O)c2ccc3c(CN4CCOCC4)cn(S(C)(=O)=O)c3c2)CC1 [Example 26, (4-Isopropyl-piperazin-1-yl)-(1-methanesulfonyl-3-morpholin-4-ylmethyl-1H-indol-6-yl)-methanone]	0.018
O=C(c1ccc2c(CN3CCN(C4CCC4)CC3)c[nH]c2c1)N1CCC(Cc2ccccc2)CC1 [Example 107, (4-Benzyl-piperidin-1-yl)-[3-(4-cyclobutyl-piperazin-1-ylmethyl)-1H-indol-6-yl]-methanone]	0.012
CN(C)C1CCN(Cc2c[nH]c3cc(C(=O)N4CCC(Cc5ccccc5)CC4)ccc23)C1 (stereo not shown) [Example 101]	0.009
CC(C)N1CCN(C(=O)c2ccc3c(CN4CCN(S(C)(=O)=O)CC4)c[nH]c3c2)CC1 [Example 54, (4-Isopropyl-piperazin-1-yl)-[3-(4-methanesulfonyl-piperazin-1-ylmethyl)-1H-indol-6-yl]-methanone]	0.012
CC(C)N1CCN(C(=O)c2ccc3scc(C(=O)N4CCCCC4)c3c2)CC1 [Example 104, [5-(4-Isopropyl-piperazine-1-carbonyl)-benzo[b]thiophen-3-yl]-piperidin-1-yl-methanone]	0.772
O=C(c1ccc2[nH]cc(CN3CCOCC3)c2c1)N1CCN(C2CCC2)CC1 [Example 40, (4-Cyclobutyl-piperazin-1-yl)-(3-morpholin-4-ylmethyl-1H-indol-5-yl)-methanone]	0.033
CC(C)N1CCCN(Cc2c[nH]c3cc(C(=O)N4CCSCC4)ccc23)CC1 [Example 72, [3-(4-Isopropyl-[1,4]diazepan-1-ylmethyl)-1H-indol-6-yl]-thiomorpholin-4-yl-methanone]	0.036
CN(C)C1CCN(Cc2c[nH]c3cc(C(=O)N4CCC(CO)CC4)ccc23)C1 (stereo not shown) [Example 94, [3-(3-Dimethylamino-pyrrolidin-1-ylmethyl)-1H-indol-6-yl]-(4-hydroxymethyl-piperidin-1-yl)-methanone]	0.027
O=C(c1ccc2c(CN3CCC(N4CCCCC4)CC3)c[nH]c2c1)N1CCC(Cc2ccccc2)CC1 [Example 106, (4-Benzyl-piperidin-1-yl)-(3-[1,4′]bipiperidinyl-1′-ylmethyl-1H-indol-6-yl)-methanone]	0.07
CC(C)N1CCCN(Cc2c[nH]c3cc(C(=O)N4CCC(CO)CC4)ccc23)CC1 [Example 84, (4-Hydroxymethyl-piperidin-1-yl)-[3-(4-isopropyl-[1,4]diazepan-1-ylmethyl)-1H-indol-6-yl]-methanone]	0.087
O=C(c1ccc2c(CN3CCCCC3)c[nH]c2c1)N1CCC(N2CCCC2=O)CC1 [Example 19, 1-[1-(3-Piperidin-1-ylmethyl-1H-indole-6-carbonyl)-piperidin-4-yl]-pyrrolidin-2-one]	0.26
O=C(c1ccc2c(CN3CCN(C4CCCC4)CC3)c[nH]c2c1)N1CCOCC1 [Example 74, [3-(4-Cyclopentyl-piperazin-1-ylmethyl)-1H-indol-6-yl]-morpholin-4-yl-methanone]	0.053
CC(C)N1CCN(C(=O)c2ccc3c(CN4CCN(C(=O)N5CCOCC5)CC4)c[nH]c3c2)CC1 [Example 61, (4-Isopropyl-piperazin-1-yl)-{3-[4-(morpholine-4-carbonyl)-piperazin-1-ylmethyl]-1H-indol-6-yl}-methanone]	0.003
CC(C)N1CCN(C(=O)c2ccc3c(CN4CCN(c5ccncc5)CC4)c[nH]c3c2)CC1 [Example 64, (4-Isopropyl-piperazin-1-yl)-[3-(4-pyridin-4-yl-piperazin-1-ylmethyl)-1H-indol-6-yl]-methanone]	0.001
O=C(c1ccc2c(CN3CCCN(C4CCC4)CC3)c[nH]c2c1)N1CCC(c2ccccc2)CC1 [Example 89, [3-(4-Cyclobutyl-[1,4]diazepan-1-ylmethyl)-1H-indol-6-yl]-(4-phenyl-piperidin-1-yl)-methanone]	0.031
CC(C)N1CCN(C(=O)c2ccc3[nH]cc(CN4CCOCC4)c3c2)CC1 [Example 35, (4-Isopropyl-piperazin-1-yl)-(3-morpholin-4-ylmethyl-1H-indol-5-yl)-methanone]	0.265
CC(C)N1CCN(C(=O)c2ccc3c(CN4CCN(CCc5ccccc5)CC4)c[nH]c3c2)CC1 [Example 56, (4-Isopropyl-piperazin-1-yl)-[3-(4-phenethyl-piperazin-1-ylmethyl)-1H-indol-6-yl]-methanone]	0.002
O=C(c1cccc2[nH]cc(CN3CCN(C4CCC4)CC3)c12)N1CCCCC1 [Example 37, [3-(4-Cyclobutyl-piperazin-1-ylmethyl)-1H-indol-4-yl]-piperidin-1-yl-methanone]	0.318
O=C(c1ccc2c(CN3CCC(N4CCCCC4)CC3)c[nH]c2c1)N1CCC(CO)CC1 [Example 79, (3-[1,4′]Bipiperidinyl-1′-ylmethyl-1H-indol-6-yl)-(4-hydroxymethyl-piperidin-1-yl)-methanone]	0.062

SMILES	Ki [µM]
O=C(c1ccc2c(CN3CCN(C4CCC4)CC3)c[nH]c2c1)N1CCSCC1 [Example 70, [3-(4-Cyclobutyl-piperazin-1-ylmethyl)-1H-indol-6-yl]-thiomorpholin-4-yl-methanone]	0.027
CC(C)N1CCCN(Cc2c[nH]c3cc(C(=O)N4CCCCC4)ccc23)CC1 [Example 30, [3-(4-Isopropyl-[1,4]diazepan-1-ylmethyl)-1H-indol-6-yl]-piperidin-1-yl-methanone]	0.026
O=C(NCc1ccncc1)c1ccc2c(CN3CCCCC3)c[nH]c2c1 [Example 16, 3-Piperidin-1-ylmethyl-1H-indole-6-carboxylic acid (pyridin-4-ylmethyl)-amide]	0.327
CC(C)N1CCN(C(=O)c2cccc3c(CN4CCCCC4)c[nH]c23)CC1 [Example 22, (4-Isopropyl-piperazin-1-yl)-(3-piperidin-1-ylmethyl-1H-indol-7-yl)-methanone]	0.032
O=C(c1ccc2c(CN3CCN(C4CC4)CC3)c[nH]c2c1)N1CCCCC1 [Example 28, [3-(4-Cyclopropyl-piperazin-1-ylmethyl)-1H-indol-6-yl]-piperidin-1-yl-methanone]	0.177
CC(C)N1CCCN(Cc2c[nH]c3cc(C(=O)N4CCC(c5ccccc5)CC4)ccc23)CC1 [Example 97, [3-(4-Isopropyl-[1,4]diazepan-1-ylmethyl)-1H-indol-6-yl]-(4-phenyl-piperidin-1-yl)-methanone]	0.059
Cn1cc(CN2CCOCC2)c2ccc(C(=O)N3CCN(C4CC4)CC3)cc21 [Example 2, (4-Cyclopropyl-piperazin-1-yl)-(1-methyl-3-morpholin-4-ylmethyl-1H-indol-6-yl)-methanone]	0.046
CC(C)N1CCN(Cc2c[nH]c3cc(C(=O)N4CCCCC4)ccc23)CC1 [Example 27, [3-(4-Isopropyl-piperazin-1-ylmethyl)-1H-indol-6-yl]-piperidin-1-yl-methanone]	0.028
CC(=O)N1CCN(Cc2c[nH]c3cc(C(=O)N4CCN(C(C)C)CC4)ccc23)CC1 [Example 48, 1-{4-[6-(4-Isopropyl-piperazine-1-carbonyl)-1H-indol-3-ylmethyl]-piperazin-1-yl}-ethanone]	0.005
O=C(c1ccc2c(CN3CCN(C4CCC4)CC3)c[nH]c2c1)N1CCCCCC1 [Example 93, Azepan-1-yl-[3-(4-cyclobutyl-piperazin-1-ylmethyl)-1H-indol-6-yl]-methanone]	0.038
O=C(c1ccc2c(CN3CCC(N4CCCCC4)CC3)c[nH]c2c1)N1CCCCCC1 [Example 90, Azepan-1-yl-(3-[1,4′]bipiperidinyl-1′-ylmethyl-1H-indol-6-yl)-methanone]	0.021
O=C(c1ccc2[nH]cc(CN3CCCCC3)c2c1)N1CCN(C2CCC2)CC1 [Example 33, (4-Cyclobutyl-piperazin-1-yl)-(3-piperidin-1-ylmethyl-1H-indol-5-yl)-methanone]	0.013
CC(C)N1CCN(C(=O)c2ccc3c(CN4CCN(Cc5ccccc5)CC4)c[nH]c3c2)CC1 [Example 51, [3-(4-Benzyl-piperazin-1-ylmethyl)-1H-indol-6-yl]-(4-isopropyl-piperazin-1-yl)-methanone]	0.002
CC(=O)N1CCCN(Cc2c[nH]c3cc(C(=O)N4CCN(C(C)C)CC4)ccc23)CC1 [Example 50, 1-{4-[6-(4-Isopropyl-piperazine-1-carbonyl)-1H-indol-3-ylmethyl]-[1,4]diazepam-1-yl}-ethanone]	0.003
O=C(c1ccc2c(CN3CCN(C4CCC4)CC3)c[nH]c2c1)N1CCC(c2ccccc2)CC1 [Example 43, [3-(4-Cyclobutyl-piperazine-1-ylmethyl)-1H-indol-6-yl]-(4-phenyl-piperidin-1-yl)-methanone]	0.008
Cc1cccnc1CNC(=O)c1ccc2c(CN3CCOCC3)c[nH]c2c1 [Example 12, 3-Morpholin-4-ylmethyl-1H-indole-6-carboxylic acid (3-methyl-pyridin-2-ylmethyl)-amide]	2
O=C(NCc1cccnc1)c1ccc2c(CN3CCCCC3)c[nH]c2c1 [Example 15, 3-Piperidin-1-ylmethyl-1H-indole-6-carboxylic acid (pyridin-3-ylmethyl)-amide]	0.117
CN(C)C1CCN(Cc2c[nH]c3cc(C(=O)N4CCSCC4)ccc23)C1 (stereo not shown) [Example 69, [3-(3-Dimethylamino-pyrrolidin-1-ylmethyl)-1H-indol-6-yl]-thiomorpholin-4-yl-methanone]	0.019
CC(C)N1CCN(C(=O)c2ccc3c(CN4CCN(C(=O)c5ccncc5)CC4)c[nH]c3c2)CC1 [Example 62, (4-Isopropyl-piperazin-1-yl)-{3-[4-(pyridine-4-carbonyl)-piperazin-1-ylmethyl]-1H-indol-6-yl}-methanone]	0.007

Same assay, conditions: stated in text for the intermediate of Example 35, Step A

SMILES	Ki [µM]
CC(C)N1CCN(C(=O)c2ccc3[nH]ccc3c2)CC1 [(1H-Indol-5-yl)-(4-isopropyl-piperazin-1-yl)-methanone]	0.097
